Assay results published in ChEMBL document CHEMBL1146797, “Design, synthesis, and biological evaluation of novel T-Type calcium channel antagonists” (Bioorg Med Chem Lett, 2004).
pIC50: −log10 of the molar value.

What was measured:
[1] = tested on: LNCaP; experiment: (§1) Inhibition of calcium influx in LNCaP (prostate).; type: functional, cell-based; conditions: Homo sapiens, Prostate gland
[2] = tested on: MDA-MB-361; experiment: Inhibition of cellular proliferation in MDA-361 (breast) tumor cells.; type: functional, cell-based; conditions: Homo sapiens
[3] = tested on: Jurkat; experiment: Inhibition of calcium influx in jurkat (T cells).; type: functional, cell-based; conditions: Homo sapiens
[4] = tested on: MDA-MB-361; experiment: Inhibition of calcium influx in MDA-361 (breast) tumor cells.; type: functional, cell-based; conditions: Homo sapiens
[5] = tested on: Jurkat; experiment: Inhibition of cellular proliferation in jurkat (T cells).; type: functional, cell-based; conditions: Homo sapiens
[6] = tested on: LNCaP; experiment: Inhibition of cellular proliferation in LNCaP (prostate).; type: functional, cell-based; conditions: Homo sapiens
[7] = tested on: LNCaP; experiment: as §1; type: functional, cell-based, Homo sapiens, Prostate gland

Row | SMILES | pIC50 [1] | pIC50 [2] | pIC50 [3] | pIC50 [4] | pIC50 [5] | pIC50 [6] | IC50 [7]
1 | COc1ccc(CCN2CCC[C@H]2COCc2ccc(Cl)cc2)cc1 | 5.00 | 4.82 | 4.60 | 4.00 | 4.74 | 4.85 | 
2 | COc1ccc(CCN2CCC[C@H]2COC(c2ccc(F)cc2)c2ccc(F)cc2)cc1 | 5.00 | 4.85 | 5.52 | 4.52 | 5.30 | 5.40 | 
3 | COc1ccc(CCN2CCC[C@H]2COC(c2ccccc2)c2ccc(Cl)c(Cl)c2)cc1 (some centres undefined) | 5.00 | 4.96 | 5.52 | 5.00 | 5.22 | 5.40 | 
4 | COc1ccccc1CCN1CCC[C@H]1COC(c1ccccc1)c1ccc(Cl)cc1 (some centres undefined) | 4.92 | 4.89 | 6.00 | 5.00 | 5.42 | 5.62 | 
5 | COc1ccc(CCN2CCC[C@H]2COC(c2ccc(Cl)cc2)c2ccc(Cl)cc2)cc1 | 5.40 | 4.96 | 5.30 | 4.60 | 5.44 | 5.52 | 
6 | COc1ccc(CCN2CCCCC2COC(c2ccc(Cl)cc2)c2ccc(Cl)cc2)cc1 (centres undefined) | 5.15 | 4.66 | 4.82 | 4.52 | 5.05 | 5.40 | 
7 | CN1CCC[C@H]1COC(c1ccccc1)c1ccc(Cl)cc1 (some centres undefined) | 4.30 | 4.33 | 4.52 | 4.00 | 4.22 | 4.77 | 
8 | COc1ccc(CCCN2CCC[C@H]2COC(c2ccccc2)c2ccc(Cl)cc2)cc1 (some centres undefined) | 4.52 | 4.96 | 6.00 | 5.00 | 5.40 | 5.46 | 
9 | COc1ccc(CCN2CCC[C@H]2COCc2ccccc2)cc1 | 4.00 | 4.08 | 4.00 | 4.70 | 3.97 | 4.48 | 
10 | COc1cccc(CCN2CCC[C@H]2COC(c2ccccc2)c2ccc(Cl)cc2)c1 (some centres undefined) | 5.00 | 4.54 | 5.52 | 4.52 | 5.30 | 5.49 | 
11 | Oc1ccc(CCN2CCC[C@H]2COC(c2ccccc2)c2ccc(Cl)cc2)cc1 (some centres undefined) | 5.00 | 4.96 | 5.00 | 4.52 | 5.22 | 5.52 | 
12 | Clc1ccc(C(OC[C@@H]2CCCN2CCc2ccccc2)c2ccccc2)cc1 (some centres undefined) | 4.52 | 4.57 | > 6.00 | 5.52 | 4.96 | 5.10 | 
13 | COc1ccc(CCN2CCC[C@H]2COC(c2ccc(OC)cc2)c2ccc(OC)cc2)cc1 | 5.00 | 4.82 | 4.82 | 4.70 | 4.89 | 5.29 | 
14 | COc1ccc(CCN2CCCCC2COC(c2ccccc2)c2ccc(Cl)cc2)cc1 (centres undefined) | 5.00 | 4.60 | 5.52 | 4.52 | 4.96 | 5.30 | 
15 | COc1ccc(CN2CCC[C@H]2COC(c2ccccc2)c2ccc(Cl)cc2)cc1 (some centres undefined) |  | 4.52 | 5.70 | 4.52 | 5.00 | 5.11 | No effect
16 | COc1ccc(CCN2CCC(COC(c3ccc(Cl)cc3)c3ccc(Cl)cc3)CC2)cc1 | 5.00 | 5.15 | 5.00 | 4.70 | 4.95 | 5.47 | 
17 | COc1ccc(CCN2CCC[C@H]2COC(c2ccc(C)cc2)c2ccc(C)cc2)cc1 | 5.30 | 4.40 | 5.52 | 4.70 | 4.96 | 5.22 | 

Results, then the compound that gave them:

Row | pIC50 [1] | pIC50 [2] | pIC50 [3] | pIC50 [4] | pIC50 [5] | pIC50 [6] | IC50 [7] | SMILES
18 | 4.82 |  | 4.52 | 4.00 | 4.40 | 4.82 |  | COc1ccc(CCN2CCC[C@H]2COC(c2ccccc2)c2ccc(Br)cc2)cc1 (some centres undefined)
19 | 5.40 | 5.00 |  | 5.00 | 5.22 | 5.40 |  | COc1ccc(CCN2CCC[C@H]2COC(c2ccccc2)c2ccc(Cl)cc2)cc1 (some centres undefined)
20 | 4.92 | 4.89 | 5.00 | 4.52 | 5.06 | 5.17 |  | COc1ccc(CCN2CCCC(COC(c3ccccc3)c3ccc(Cl)cc3)C2)cc1 (centres undefined)
21 | 4.82 | 4.75 | 5.10 | 4.52 | 4.86 | 5.04 |  | COc1ccc(CCN2CCCC(COC(c3ccccc3)c3ccccc3)C2)cc1 (centres undefined)
22 | 4.52 | 4.54 | 5.00 | 4.52 | 4.92 | 5.00 |  | COc1ccc(CCN2CCC[C@H]2COC(c2ccccc2)c2ccccc2)cc1
23 | 5.30 | 4.89 | 5.00 | 4.52 | 5.02 | 5.30 |  | COc1ccc(CCN2CCCC(COC(c3ccc(Cl)cc3)c3ccc(Cl)cc3)C2)cc1 (centres undefined)
24 | 5.30 | 4.98 | 5.15 | 4.60 | 5.08 | 5.48 |  | COc1ccc(CCN2CCC(COC(c3ccccc3)c3ccc(Cl)cc3)CC2)cc1 (centres undefined)
25 | 5.00 | 4.85 | 5.52 | 4.70 | 4.89 | 5.70 |  | COc1ccc(CCN2CCC[C@H]2COC(c2ccccc2)c2ccc(F)cc2)cc1 (some centres undefined)
26 | 4.82 | 5.00 | 4.70 | 4.52 | 5.08 | 5.30 |  | COc1ccc(CCN2CCC(COC(c3ccccc3)c3ccccc3)CC2)cc1
